Consider 1 substance from patent publication US8828932B2, “Bifunctional molecules for inactivating HIV and blocking HIV entry” (New York Blood Center, Inc., priority 2010, dated 2014).

One assay concerns 92TH009 (E/A, R5). The assay is described as follows: Primary HIV-1 isolate infection of PBMCs, p24 ELISA. The class given is cell-based. Here is the method:
(§1) The inhibitory activity of the bifunctional molecule on infection by primary HIV-1 isolates, 92US657 (B, R5), 94UG103 (A, X4R5), 93MW959 (C, R5), RU570 (G, R5) and 92TH009 (E/A, R5) was determined (Jiang S et al. Antimicrob Agents Chemother 48:4349-4359, 2004). Briefly, peripheral blood mononuclear cells (PBMCs) were isolated from the blood of healthy donors using a standard density gradient (Histopaque-1077, Sigma) centrifugation. After incubation at 37° C. for 2 hr, the nonadherent cells were collected and resuspended at 5×10^5/ml in RPMI 1640 medium containing 10% FBS, 5 μg of phytohemagglutinin (PHA)/ml, and 100 U of IL-2/ml, followed by incubation at 37° C. for 3 days. The PHA-stimulated cells were infected with the corresponding primary HIV-1 isolates at a multiplicity of infection (MOI) of 0.01 in the absence or presence of antisera at a serial 2-fold dilution. The supernatants were collected 7 days post-infection and tested for p24 antigen by ELISA as described above. The IC50 was calculated using the […]™ software as described above.
For orientation: ELISA stands for enzyme-linked immunosorbent assay.

The subject of assay [1] is HIV-1 IIIB (B, X4). Here is the method:
The inhibitory activity of the bifunctional molecule on HIV-1 IIIB infection was determined by ELISA for p24 production (Jiang S et al. J Exp Med 174:1557-1563, 1991). Briefly, MT-2 cells were infected with HIV-1IIIB at 100 TCID50 (50% tissue culture infective dose) in RPMI 1640 medium containing 10% FBS in the presence or absence of an antigen specific antiserum or IgG antibody in serial 2-fold dilutions at 37° C. overnight. The culture supernatants were then removed and fresh media were added. On day 4 post-infection, the culture supernatants were collected and mixed with equal volumes of 5% TRITON™ X-100 for the detection in the p24 protein ELISA.

Assay [2] has as its system HIV-1 IIIB (B, X4). The assay is described as follows: Inactivation of cell-free virus, PEG 6000 precipitation, MT-2 cells, p24. The following applies: FIG. 17, MT-2 cells. The class given is cell-based. The procedure: (§2) Briefly, HIV-1 isolate (500 TCID50/ml) was added to 100 μl of the samples with different concentration and incubate on 4° C. for 1 hour. Then, PEG 6000 was added to the final concentration of 3% and centrifuge on a microfuge at 15,000 rpm for 30 min. The supernatants were removed, and the pellet was washed with PBS and resuspended to 100 μl. MT-2 or TZM-bl cells (1×10^5/ml) were added at 100 μl/well, and cultured at 37° C. for 3 days. p24 production in MT-2 or luciferase activity was determined according to kit manufacturer' instruction.

In another assay the test system is 93MW959 (C, R5). The assay is classed as cell-based, HIV-1. Here is the method: as §1
In another assay the test system is 92US657 (B, R5). The class given is cell-based, HIV-1. Here is the method: as §1
A further assay relates to RU570 (G, R5). The assay is classed as cell-based, HIV-1. Here is the method:
as §1

For another assay, the system named is 94UG103 (A, X4R5). The class given is cell-based, HIV-1. Here is the method:
as §1

Assay [3] relates to HIV-1 IIIB chronically infected H9 cells / MT-2 cells. The assay is classed as cell-based. Here is the method:
HIV-1-mediated cell-cell fusion was determined by a dye transfer assay (Lu H et al. J Virol Methods 107:155-161, 2003.) using Calcein AM-labeled HIV-1IIIB chronically infected H9 (H9/HIV-1 IIIB) cells as effector cells and MT-2 cells as target cells.

For assay [4], the system named is HIV-1 Bal (B, R5). The assay is described as follows: Inactivation of cell-free virus, PEG 6000 precipitation, TZM-bl cells, luciferase. The assay is classed as cell-based. The settings on record: FIG. 18, luciferase. The procedure: as §2
Assay [5] relates to HIV-1 Bal (B, R5). The assay is classed as cell-based. The procedure: The cells were harvested and lysed on the fourth day post-infection with 50 μl of lysing reagent. The luciferase activity was analyzed using a luciferase kit (Promega) and a luminometer (Ultra 386, Tecan) according to the manufacturer's instruction. The percent inhibition of luciferase activity was calculated.

With enfuvirtide, the IC50 worked out at 1.43 nM in the assay on 92TH009 (E/A, R5) (read-out: IC50, HIV-1 replication 92TH009 (E/A, R5)); 17.3 nM with HIV-1 IIIB (B, X4) [1]; 4.7 nM with 93MW959 (C, R5); 56.1 nM in the assay with 92US657 (B, R5); 44.1 nM in the assay on RU570 (G, R5); 6.67 nM in the assay with 94UG103 (A, X4R5). In addition, the IC50 in assay [3] turned out to be 20.1 nM; in the assay on HIV-1 Bal (B, R5) [5] it was 43.4 nM. Besides, the IC90 with 92TH009 (E/A, R5) (read-out: IC90, HIV-1 replication 92TH009 (E/A, R5)) is 7.99 nM; with HIV-1 IIIB (B, X4) [1] it was 117 nM; with 93MW959 (C, R5) it was 18.8 nM; with 92US657 (B, R5), 224 nM; in the assay on RU570 (G, R5) it was 110 nM; in the assay on 94UG103 (A, X4R5), 29.4 nM. Also, the IC90 in [3] is 41.7 nM; with HIV-1 Bal (B, R5) [5], > 250 nM. In addition, in the assay with HIV-1 IIIB (B, X4) [2], the “virus inactivation activity, HIV-1 IIIB” value is listed as “no significant effects on virus”. In addition, in the assay with HIV-1 Bal (B, R5) [4], the “virus inactivation activity, HIV-1 Bal” value was “no significant effects on virus”.
